Broadly, the melting point is the temperature of the solid-liquid transition.

Experimental findings from patent US6599905B2, “Pyrazine compounds” (SmithKline Beecham Corporation, priority 1997, dated 2003) are described below.

Molecules are shown by their SMILES.

`O=C(Nc1cnc(-c2cc(Cl)cc(Cl)c2Cl)c(NC(=O)C2CC2)n1)C1CC1` [Example 9, 2,6-Dicyclopropylcarbonylamino-3-(2,3,5-trichlorophenyl) pyrazine] had a melting point of 212 to 214 °C.
As for `Nc1nc(NC(=O)C2CC2)cnc1-c1cc(Cl)cc(Cl)c1Cl` [Example 9, 2-Amino-6-cyclopropylcarbonylamino-3-(2,3,5-trichlorophenyl)pyrazine], the figure is 240 to 244 °C; as for `CC(C)C(=O)Nc1cnc(-c2cc(Cl)cc(Cl)c2Cl)c(NC(=O)C(C)C)n1` [Example 10, 2,6-Diisopropylcarbonylamino-3-(2,3,5-trichlorophenyl) pyrazine], 227 to 229 °C.
Under `N#Cc1nc(-c2cc(Cl)cc(Cl)c2Cl)c(N)nc1N` [Example 17, 5-Cyano-2,6-Diamino-3-(2,3,5-trichlorophenyl)pyrazine] stands 277 to 279 °C.
